Data taken from patent US20250186396A1, “COMPOSITIONS AND METHODS FOR THE TREATMENT OF GLIOBLASTOMA WITH A DUAL TARGETING ANTI-TUMOR COMPOSITION” (Northwestern University, priority 2023, published 2025).

Tested on: OLFML3
Test: RT-qPCR of OLFML3 in PTEN-KO SF763 cells
Format: cell-based, human
Details: shC PTEN-KO SF763 cells; SC75741 5 μM; 8 hours
Experimental: Cell Culture. The GBM cell lines U87, U251, SF763, LN229, and CT2A, as well as 293T cells were cultured in Dulbecco's Modified Eagle's Medium (DMEM; Gibco, #11995-065). The mouse glioma cell line GL261 cells and SIM-A9 microglia were cultured in Dulbecco's Modified Eagle Medium-Ham's F12 medium (Gibco, #10565-018). HMC3 microglia were cultured in Eagle's Minimum Essential Medium (ATCC, #30-2003). THP-1 macrophages were cultured in RPMI 1640 medium (Gibco, #11875093). All cell lines were cultured in the indicated medium containing 10% fetal bovine serum (FBS; Fisher Scientific, #16140071) and 1:100 antibiotic-antimycotic (Gibco, #15140-122), and were purchased from the American Type Culture Collection (ATCC). Human GSCs (GSC23 and GSC7-10) and mouse GBM tumor-derived 005 GSCs and QPP7 GSCs were cultured in neural stem cell (NSC) proliferation media (Millipore, #SCM005) containing 20 ng/mL epidermal growth factor (EGF; PeproTech, #AF-100-15) and basic fibroblast growth factor (bFGF; PeproTech, #100-18B). Human GSCs were gifted by Dr. Frederick F. Lang from the Brain Tumor Center (The University of Texas MD Anderson Cancer Center). […]
Quantitative real-time PCR (RT-qPCR). […] RNA was quantified by NanoDrop spectrophotometers and then the All-In-One 5× RT MasterMix (Applied Biological Materials, #G592) was used to reverse-transcribe RNA into cDNA in T100 Thermal Cycler (Bio-Rad). […]

O=C(c1ccccc1)c1ccc2nc(NC(=O)c3csc(C4CCN(c5ncnc6ccsc56)CC4)n3)[nH]c2c1 [SC75741]
mRNA expression of OLFML3: upregulated
